{"source": "patent US6245354A", "about": "“Drug delivery system using galactoxyloglucan” (Dainippon Pharmaceutical Co., Ltd., priority 1996, dated 2001)", "origin": "cited, not measured here"}
{"compound": "CO[C@@]12[C@H](COC(N)=O)C3=C(C(=O)C(C)=C(N)C3=O)N1C[C@@H]1N[C@@H]12", "note": "[mitomycin C]", "values": [{"measurement": "transfer to systemic circulation", "setting": "administered into the abdominal cavity", "value": "rapidly transferred to a systemic circulation"}, {"measurement": "therapeutic effects", "setting": "peritoneal tumors, carcinomatous peritonitis, into the abdominal cavity", "value": "can not exhibit sufficient therapeutic effects"}]}
